# System: patients with chronic constipation
# Assay: Response by serotonin transporter (SLC6A4) promoter insertion/deletion genotype
# Format: in vivo, human
# Conditions: for OR: tegaserod vs placebo
# From the text: Two major classes of insertion/deletion polymorphisms have been characterized for the SLC6A4 gene, one in intron 2 and another in the promoter region. SLC6A4 is the serotonin transporter gene, also know as SERT or HTT. Camilleri and colleagues reported that SLC6A4 promoter insertion/deletion polymorphism was associated with colonic transit response following treatment with the serotonin 5-HT3 receptor antagonist alosetron. Camilleri M et al., Gastroenterology; 123 (2):425-32 (2002). […] The overall response rates for C16-C16 were 48% for tegaserod and 21% for placebo (OR=3.51, 95% CI: 1.67-7.41) compared to the C14-C14 homozygotes at 45% for tegaserod and 27% for placebo (OR=2.3, 95% CI: 0.93-5.69) and C14-C16 heterozygotes at 43% for tegaserod and 28% for placebo (OR=1.95; 95% CI: 1.12-3.41). Within a given treatment group, there was no statistically significant difference between response rates between the different genotypes.
smiles,measurement,setting,value
"[H]/N=C(/NCCCCC)N/N=C/c1c[nH]c2ccc(OC)cc12 [tegaserod, Tegaserod]",overall response rate,serotonin transporter promoter polymorphism C14-C14 homozygotes,45%
same,overall response rate,serotonin transporter promoter polymorphism C14-C16 heterozygotes,43%
same,overall response rate,serotonin transporter promoter polymorphism C16-C16 homozygotes,48%
same,OR,C14-C14 homozygotes,2.3
same,OR,C14-C16 heterozygotes,1.95
same,OR,C16-C16 homozygotes,3.51

# Source: patent US20090118350A1, “Biomarkers for Identifying Efficacy of Tegaserod in Patients with Chronic Constipation” (priority 2005, published 2009)
